Experimental data: the NIST ThermoML archive (doi:10.1021/acs.jced.6b00455)

Assay: mn = molality of the nth substance listed, in mol/kg
Settings: 101 kPa, Liquid, Alternating current cell with electrodes

C[N+](C)(C)CCO.O=C([O-])C(F)(F)C(F)(F)C(F)(F)C(F)(F)C(F)(F)C(F)(F)F [(2-hydroxyethyl)trimethylammonium perfluoroheptanoate] + O
Settings | electrical conductivity [S/m]
293.15 K, m1 = 0.000135 | 0.0009
293.15 K, m1 = 0.000317 | 0.002
293.15 K, m1 = 0.000535 | 0.0035
293.15 K, m1 = 0.000719 | 0.0047
293.15 K, m1 = 0.000905 | 0.0059
293.15 K, m1 = 0.001097 | 0.0071
293.15 K, m1 = 0.001295 | 0.0083
293.15 K, m1 = 0.001556 | 0.01
293.15 K, m1 = 0.001738 | 0.0112
293.15 K, m1 = 0.001921 | 0.0124
293.15 K, m1 = 0.002361 | 0.0151
293.15 K, m1 = 0.002553 | 0.0164
293.15 K, m1 = 0.002745 | 0.0179
293.15 K, m1 = 0.002967 | 0.0189
293.15 K, m1 = 0.003167 | 0.0201
293.15 K, m1 = 0.003365 | 0.021
293.15 K, m1 = 0.003617 | 0.0224
293.15 K, m1 = 0.003811 | 0.0234
293.15 K, m1 = 0.003989 | 0.0244
293.15 K, m1 = 0.004235 | 0.0259
293.15 K, m1 = 0.004463 | 0.0271
293.15 K, m1 = 0.004647 | 0.0283
293.15 K, m1 = 0.005243 | 0.0318
293.15 K, m1 = 0.00563 | 0.0339
293.15 K, m1 = 0.006196 | 0.037
293.15 K, m1 = 0.006659 | 0.0405
293.15 K, m1 = 0.006813 | 0.0416
293.15 K, m1 = 0.007215 | 0.0437
293.15 K, m1 = 0.007673 | 0.0468
293.15 K, m1 = 0.007989 | 0.0489
298.15 K, m1 = 0.000182 | 0.0012
298.15 K, m1 = 0.000351 | 0.0023
298.15 K, m1 = 0.000524 | 0.0036
298.15 K, m1 = 0.000696 | 0.0048
298.15 K, m1 = 0.000849 | 0.0059
298.15 K, m1 = 0.001022 | 0.0071
298.15 K, m1 = 0.001139 | 0.0079
298.15 K, m1 = 0.001334 | 0.0092
298.15 K, m1 = 0.001552 | 0.0107
298.15 K, m1 = 0.001763 | 0.0123
298.15 K, m1 = 0.001988 | 0.014
298.15 K, m1 = 0.002225 | 0.0158
298.15 K, m1 = 0.002433 | 0.0172
298.15 K, m1 = 0.002631 | 0.0186
298.15 K, m1 = 0.00283 | 0.0198
298.15 K, m1 = 0.003092 | 0.0212
298.15 K, m1 = 0.003297 | 0.0222
298.15 K, m1 = 0.003578 | 0.0237
298.15 K, m1 = 0.003893 | 0.0254
298.15 K, m1 = 0.004239 | 0.0271
298.15 K, m1 = 0.004535 | 0.0288
298.15 K, m1 = 0.004786 | 0.0303
298.15 K, m1 = 0.00505 | 0.0318
298.15 K, m1 = 0.005319 | 0.0333
298.15 K, m1 = 0.005529 | 0.0345
298.15 K, m1 = 0.005823 | 0.0361
303.15 K, m1 = 0.000162 | 0.0014
303.15 K, m1 = 0.000327 | 0.0027
303.15 K, m1 = 0.000396 | 0.0031
303.15 K, m1 = 0.000558 | 0.0045
303.15 K, m1 = 0.000597 | 0.0046
303.15 K, m1 = 0.000902 | 0.0068
303.15 K, m1 = 0.001056 | 0.0084
303.15 K, m1 = 0.001145 | 0.0088
303.15 K, m1 = 0.001333 | 0.0102
303.15 K, m1 = 0.001525 | 0.0116
303.15 K, m1 = 0.001575 | 0.0126
303.15 K, m1 = 0.001779 | 0.0138
303.15 K, m1 = 0.001975 | 0.0164
303.15 K, m1 = 0.00219 | 0.0173
303.15 K, m1 = 0.002392 | 0.0187
303.15 K, m1 = 0.002573 | 0.0201
303.15 K, m1 = 0.002757 | 0.0218
303.15 K, m1 = 0.003 | 0.0233
303.15 K, m1 = 0.003295 | 0.0254
303.15 K, m1 = 0.003479 | 0.0262
303.15 K, m1 = 0.003569 | 0.0269
303.15 K, m1 = 0.00377 | 0.0282
303.15 K, m1 = 0.00395 | 0.0297
303.15 K, m1 = 0.004136 | 0.0313
303.15 K, m1 = 0.004356 | 0.033
303.15 K, m1 = 0.00458 | 0.0343
303.15 K, m1 = 0.004761 | 0.0357
303.15 K, m1 = 0.005083 | 0.0368
308.15 K, m1 = 0.000308 | 0.0028
308.15 K, m1 = 0.001088 | 0.0096
308.15 K, m1 = 0.001458 | 0.0131
308.15 K, m1 = 0.001696 | 0.0151
308.15 K, m1 = 0.001932 | 0.0174
308.15 K, m1 = 0.002314 | 0.0204
308.15 K, m1 = 0.002768 | 0.0243
308.15 K, m1 = 0.002948 | 0.0255
308.15 K, m1 = 0.003212 | 0.0279
308.15 K, m1 = 0.003414 | 0.0297
308.15 K, m1 = 0.003749 | 0.0324
308.15 K, m1 = 0.004024 | 0.0348
308.15 K, m1 = 0.004369 | 0.037
308.15 K, m1 = 0.004622 | 0.0392
308.15 K, m1 = 0.004874 | 0.0413
308.15 K, m1 = 0.00517 | 0.0438
308.15 K, m1 = 0.005462 | 0.0462
313.15 K, m1 = 0.000152 | 0.0016
313.15 K, m1 = 0.000311 | 0.0032
313.15 K, m1 = 0.000509 | 0.005
313.15 K, m1 = 0.000756 | 0.0072
313.15 K, m1 = 0.000952 | 0.0094
313.15 K, m1 = 0.001127 | 0.0112
313.15 K, m1 = 0.001383 | 0.0138
313.15 K, m1 = 0.001573 | 0.0155
313.15 K, m1 = 0.001796 | 0.0179
313.15 K, m1 = 0.001971 | 0.0201
313.15 K, m1 = 0.002233 | 0.0227
313.15 K, m1 = 0.002359 | 0.0239
313.15 K, m1 = 0.002573 | 0.0262
313.15 K, m1 = 0.002937 | 0.0297
313.15 K, m1 = 0.003135 | 0.0321
313.15 K, m1 = 0.003363 | 0.0336
313.15 K, m1 = 0.003618 | 0.0359
313.15 K, m1 = 0.003798 | 0.0379
313.15 K, m1 = 0.003983 | 0.0396
313.15 K, m1 = 0.004151 | 0.0413
313.15 K, m1 = 0.004487 | 0.0444
313.15 K, m1 = 0.004771 | 0.0466
313.15 K, m1 = 0.00507 | 0.0489
313.15 K, m1 = 0.005297 | 0.0508
313.15 K, m1 = 0.005682 | 0.0543
